Assay results reported in patent US20220096431A1, “PHARMACEUTICAL COMPOSITION AND METHOD FOR PREVENTING, TREATING AND DIAGNOSING A NEURODEGENERATIVE DISEASE” (BUDDHIST TZU CHI MEDICAL FOUNDATION, priority 2020, published 2022).

What was measured:
[1] = test system: Ts-21 iPSCs (neurons with Alzheimer's disease symptoms); experiment: Gene microarray analysis of n-BP-treated Ts-21 iPSCs; type: cell-based, human
From the text: To examine the mechanism by which n-BP regulated miR expression, n-BP-treated Ts-21 iPSCs were subjected to gene microarray analysis. […] The 4 predicted binding energy between lnc-CYP3A43-2 and miR-29b-2-5p are the lowest (−11.49 Kcal/mol) among these four lncRNA and the predicted target sequence between lnc-CYP3A43-2 and miR-29b-2-5p are shown in FIG. 6G.
For example, ATP6V0D2 and IST1 are autophagy-related genes, and the expression levels thereof increase by 30.07 times and 15.72 times, respectively, after administration of n-butylidenephthalide, while genes related to inflammation including NT5E, STAP1, DEC1, ADAMDEC1 have their expression levels reduced by 12.6, 12.79, 28.35 and 43.55 times, respectively.

[2] = test system: miR-29b-2-5p and PSEN1 in the hippocampus of 3xTg AD mice; experiment: RT-qPCR of miR-29b-2-5p and PSEN1 in the hippocampus of 3xTg AD mice; type: in vivo
From the text: FIGS. 7E and 7F show the RT-qPCR analysis result of the expression levels of miR-29b-2-5p and PSEN1, respectively, in the hippocampus of 3xTg AD mice. n=—4.
AD-3xTg transgenic mice are an animal model used to study Alzheimer's disease. The transgenic mice are genetically engineered to carry point mutations of human amyloid precursor protein (APP), microtubule-associated protein tau (MAPT P301L) and type I presenilin protein (PSEN-1). The AD-3xTg transgenic mice carrying Alzheimer's mutation genes affect the brain and produce symptoms, mainly involving amyloid aggregation in the hippocampus and cerebral cortex. […] The 3xTg mice have β-amyloid accumulation in the brain and have problems related to cognition.

Aβ1-42 = experiment: ELISA of Aβ1-42 in the medium of Ts-21 iPSCs; type: cell-based, human; conditions: 100 μM n-BP
[3] = test system: NICD, Aβ1-42 and PSEN1 in iPSC-derived human neurons; experiment: Western blot of NICD, Aβ1-42 and PSEN1 in iPSC-derived human neurons; type: cell-based; conditions: 100 μM n-BP, 48 h
Experimental: Because the Notch intracellular domain (NICD) is most relevant to the development of AD drugs, western blot analysis was conducted to explore the effect of 100 μM n-BP-induced inhibition of Notch cleavage in iPSC-derived human neurons and on the expressions of miR-29b-2-5p and PSEN1. […] The change in the expressions of miR-29b-2-5p, PSEN1, and Aβ1-42 was therefore consistent with those observed in n-BP-treated Ts-21 iPSCs.

[4] = test system: neurons differentiated from trisomy 21-iPSC; experiment: Aβ aggregation, phosphorylated Tau and miRNA in neurons differentiated from Ts21-iPSC; type: cell-based, human
From the text: The neurons differentiated from the induced pluripotent stem cells produce hyperphosphorylated Tau (AT8). Excessive expression of AT8 affects winding signals and nutrient transmission of neurons; Aβ 1-42 is the main component of amyloid accumulation; microtubule-associated protein (microtubule-associated protein 2, MAP2) is a marker of neurons which mainly maintains the stability of dendritic neurons; tubulin (neuron-specific class III β-tubulin, TuJ1) is also a marker of neurons.
By genetic engineering, the four transcription factors Oct-4, Sox-2, c-Myc, and Klf-4 were delivered into adult cells and reverse-transcribed the cells into induced pluripotent stem cells (iPSC) carrying trisomy 21(Ts21) gene mutation.

SH-SY5Y = experiment: MTT cell viability of SH-SY5Y cells; conditions: n-Bp 100 μM, vitamin C 200 μM
From the text: Then, the cell viability is detected by a cell survival test using (3-(4,5-dimethylthiazol-2-yl)-2,5-diphenyltetrazolium bromide (MTT) assay.

[5] = neurons with Alzheimer's disease symptoms, autophagy-related gene
[6] = neurons with Alzheimer's disease symptoms, inflammation-related gene
[7] = hippocampal gyrus of AD-3xTg mice, 120 mg/kg orally, vs untreated
[8] = hippocampus of 3xTg AD mice, control 100%

## CCCC=C1OC(=O)c2ccccc21 [n-BP, n-butylidenephthalide]
[1]; gene A 21 P0014752, neurons with Alzheimer's disease symptoms
  Multiple of change: 17.29
[1]; gene ADAMDECI, neurons with Alzheimer's disease symptoms
  Multiple of change: −43.55
[1]; gene ATP6VOD2, neurons with Alzheimer's disease symptoms
  Multiple of change: 30.07
[1]; gene BG182298, neurons with Alzheimer's disease symptoms
  Multiple of change: −11.75
[1]; gene CTLA4, neurons with Alzheimer's disease symptoms
  Multiple of change: 29.78
[1]; gene DECI, neurons with Alzheimer's disease symptoms
  Multiple of change: −28.35
[1]; gene EN ST00000442006, neurons with Alzheimer's disease symptoms
  Multiple of change: −26.17
[1]; gene EN ST00000552046, neurons with Alzheimer's disease symptoms
  Multiple of change: −38.01
[1]; gene EN ST00000589476, neurons with Alzheimer's disease symptoms
  Multiple of change: −26.08
[1]; gene ENST00000427341, neurons with Alzheimer's disease symptoms
  Multiple of change: 36.49
[1]; gene ENST00000444130, neurons with Alzheimer's disease symptoms
  Multiple of change: 21.29
[1]; gene ENST00000496217, neurons with Alzheimer's disease symptoms
  Multiple of change: 50.33
[1]; gene ENST00000503666, neurons with Alzheimer's disease symptoms
  Multiple of change: 47.83
[1]; gene ENST00000554445, neurons with Alzheimer's disease symptoms
  Multiple of change: 27.81
[1]; gene ENST00000556397, neurons with Alzheimer's disease symptoms
  Multiple of change: 30.44
[1]; gene GATA3, neurons with Alzheimer's disease symptoms
  Multiple of change: 10.76
[1]; gene ISTI, neurons with Alzheimer's disease symptoms
  Multiple of change: 15.72
[1]; gene Inc-DCTD-2, neurons with Alzheimer's disease symptoms
  Multiple of change: 9.25
[1]; gene Inc-RP11-766F14.2.1-1, neurons with Alzheimer's disease symptoms
  Multiple of change: −34.38
[1]; gene LOC100131532, neurons with Alzheimer's disease symptoms
  Multiple of change: 47.19
[1]; gene LOC101060106, neurons with Alzheimer's disease symptoms
  Multiple of change: 22.27
[1]; gene LOC101928280, neurons with Alzheimer's disease symptoms
  Multiple of change: −43.14
[1]; gene LOC101928885, neurons with Alzheimer's disease symptoms
  Multiple of change: 21.40
[1]; gene MBOATI, neurons with Alzheimer's disease symptoms
  Multiple of change: −4.65
[1]; gene NCFIB, neurons with Alzheimer's disease symptoms
  Multiple of change: 34.03
[1]; gene NT5E, neurons with Alzheimer's disease symptoms
  Multiple of change: −12.60
[1]; gene SAP30L-AS1, neurons with Alzheimer's disease symptoms
  Multiple of change: 5.80
[1]; gene SH3RF3, neurons with Alzheimer's disease symptoms
  Multiple of change: 23.23
[1]; gene SPANXN3, neurons with Alzheimer's disease symptoms
  Multiple of change: 23.24
[1]; gene STAPI, neurons with Alzheimer's disease symptoms
  Multiple of change: −12.79
[1]; gene TAC4, neurons with Alzheimer's disease symptoms
  Multiple of change: 12.64
[1]; gene TDRD5, neurons with Alzheimer's disease symptoms
  Multiple of change: 31.41
[1]; gene THC2717143, neurons with Alzheimer's disease symptoms
  Multiple of change: 29.19
[1]; gene TMC3-AS1, neurons with Alzheimer's disease symptoms
  Multiple of change: 6.53
[1]; gene TSKS, neurons with Alzheimer's disease symptoms
  Multiple of change: 8.21
[1]; gene TTTY14, neurons with Alzheimer's disease symptoms
  Multiple of change: −22.89
[1]; gene XLOC 12 011873, neurons with Alzheimer's disease symptoms
  Multiple of change: 6.35
[1]; gene lnc-AL450307.1-1, neurons with Alzheimer's disease symptoms
  Multiple of change: −56.05
[1]; gene lnc-C50rf49-2, neurons with Alzheimer's disease symptoms
  Multiple of change: 34.90
[1]; gene lnc-CYP3A43-2, neurons with Alzheimer's disease symptoms
  Multiple of change: −60.06
[1]; gene lnc-FZDIO-3, neurons with Alzheimer's disease symptoms
  Multiple of change: 39.19
[1]; gene lnc-ILIRI-1, neurons with Alzheimer's disease symptoms
  Multiple of change: −39.19
[1]; gene lnc-KCNC2-4, neurons with Alzheimer's disease symptoms
  Multiple of change: −8.92
[1]; gene lnc-KCNG3-1, neurons with Alzheimer's disease symptoms
  Multiple of change: 29.33
[1]; gene lnc-KHDRBS3-9, neurons with Alzheimer's disease symptoms
  Multiple of change: 27.98
[1]; gene lnc-P2RY2-3, neurons with Alzheimer's disease symptoms
  Multiple of change: −105.51
[1]; gene lnc-PGPEPIL-I, neurons with Alzheimer's disease symptoms
  Multiple of change: 35.28
[1]; gene lnc-PTGES-I, neurons with Alzheimer's disease symptoms
  Multiple of change: 28.50
[1]; gene lnc-USP16-7, neurons with Alzheimer's disease symptoms
  Multiple of change: 31.72
[1]; gene lnc-ZBTB7C-1, neurons with Alzheimer's disease symptoms
  Multiple of change: −60.03
[1]; n-BP-treated Ts-21 iPSCs
  Expression of four long noncoding RNA (lncRNA): less than −50 fold
[1]; [5]
  ATP6V0D2 expression level, increase: 30.07 times
  IST1 expression level, increase: 15.72 times
[1]; [6]
  ADAMDEC1 expression level, reduced by: 43.55 times
  DEC1 expression level, reduced by: 28.35 times
  NT5E expression level, reduced by: 12.6 times
  STAP1 expression level, reduced by: 12.79 times
[2]; [7]
  Gene expression level of PSEN-1: decreased expression levels
  Gene expression level of miRNA-29b-2-5p: higher expression levels
[2]; [8]
  PSEN1 expression: 26.26%±27.75%
  miR-29b-2-5p expression: 188.58%±55.09%
Aβ1-42
  Aβ1-42 expression (ELISA, medium): decrease
[3]
  Aβ1-42 protein expression: 35.02%±24.39%
  Expression of proteins in NICD: no change
  PSEN1 protein expression: 65.94%±4.52%
[4]; FIG. 5B
  Aβ aggregation: effectively reduces
  Phosphorylation of Tau protein: effectively reduces
[4]; FIG. 5C
  Expression level of miRNA-29b-2-5p: increased significantly
[4]; FIG. 5D
  Aggregation of Aβ 1-42 (protein levels): decreased
  Protein expression of phosphorylated Tau protein: decreased
SH-SY5Y
  Cell survival (biosafety): Neither butylidenephthalide nor vitamin C has any effect on cell survival
